The target in this assay is T1, σ1 receptors (Homo sapiens, UniProt Q99720).
T1 construct: endogenous in cells; host or cells: HEK-293 cell membranes
Put plainly: σ1 receptor binding assay ((+)-[3H]pentazocine displacement, HEK-293 cell membranes). The following applies: 10 nM (+)-[3H]-pentazocine, 120 min at 37° C. On the procedure: Sigma-1 (σ1) and sigma-2 (σ2) receptor binding assays are carried out in membranes from HEK-293 (Human Embryonic Kidney) cells.
Confluent HEK-293 cells are harvested in PBS/5 mM EDTA. They are centrifuged at 2000 rpm for 5 min and then washed two times in PBS. Cells are homogenized in 20 mM Tris-HCL (pH=7.5) containing 5 mM EDTA, 0.5 mM PMSF and 0.5 μg/mL leupeptin using a Dounce homogenizer and sonicated for 5 minutes.
Nuclear debris and intact cells are removed by centrifugation at 3000 rpm for 10 minutes at 4° C. The supernatant is centrifuged at 12000 rpm for 30 minutes and the resulting pellet is resuspended in 25 mM Tris-HCL (pH=7.5), 25 mM Mg2Cl, 10% sucrose containing 0.5 mM PMSF, 2 mM AEBSF, 1 mM EDTA, 130 μM bestatin, 14 μM E-64, 1 μM leupeptin and […] aprotinin.
Proteins are determined using the Bio Rad Protein Assay Dye Reagent and the membranes are aliquoted and frozen at −80° C. […]
Total binding is determined by incubating 50 μg of HEK-293 cell membranes with 10 nM (+)-[^3H]-pentazocine (Perkin-Elmer, 35 Ci/mmol) and assay buffer (50 mM Tris-HCl, pH=8.3) in a total volume of 200 μl. Non specific binding is determined in the presence of 10 μM unlabeled pentazocine. […] The filters are washed three times and the membrane-bound radioactivity is determined in a Microbeta scintillation counter. […]
Specific binding is determined by subtraction of non specific binding from total binding. […]

IC50 data for two molecules are collected here from patent US20090221607A1, “Piperazine Derivatives” (M's Science Corporation, priority 2006, published 2009).

The structures appear in SMILES notation. pIC50: −log10 of the molar value. Structures can show the parent of a compound that is named as a salt.

T1 sequence (Q99720 whole entry): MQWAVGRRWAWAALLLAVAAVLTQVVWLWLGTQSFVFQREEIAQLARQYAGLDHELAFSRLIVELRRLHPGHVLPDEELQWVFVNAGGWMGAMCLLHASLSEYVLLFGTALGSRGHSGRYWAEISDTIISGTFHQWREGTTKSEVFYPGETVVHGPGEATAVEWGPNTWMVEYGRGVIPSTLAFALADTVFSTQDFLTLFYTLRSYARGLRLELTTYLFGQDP

As to `Fc1ccc(OCCN2CCN(CCOc3ccc(F)cc3)CC2)cc1` [1,4-bis-[2-(4-fluorophenoxy)ethyl]piperazine], the pIC50 (usually −log10 of the IC50, conventionally taken in molar units) is > 6.15. Take `Fc1ccccc1OCCN1CCN(CCOc2ccccc2F)CC1` [Example 1, 1,4-Bis-[2-(2-fluorophenoxy)ethyl]piperazine dihydrochloride]: the pIC50 is > 6.15.
